Earlier results, collected in US20100130442A1, “Lung Injury Treatment” (priority 2007, published 2010).

Legend:
[1] = test system: mechanical ventilation induced lung injury; details: in vivo
[2] = test system: lung injury induced by intratracheal LPS in C57BL/6 mice; details: spontaneously ventilating C57BL/6 mice

In the case of CCCCCCCCCCCCC/C=C/[C@@H](O)[C@@H](N)COP(=O)(O)O [Sphingosine-1-Phosphate], the “mechanical ventilation induced lung injury” value [1] is given as “blocked” and the “lung injury induced by intratracheal LPS” value [2] is given as “attenuates”.
